# Experimental data reported in publication PMC10411625, “Rationally designed stapled peptides allosterically inhibit PTBP1–RNA-binding” (Chemical Science, 2023).
# Biological target: T1, PTBP1 RRM1 (Homo sapiens, UniProt P26599)
# T1 construct: (G41-A163); His tag; made in house; host or cells: E. coli BL21 DE3 RIL
# T1 sequence (P26599 41-163): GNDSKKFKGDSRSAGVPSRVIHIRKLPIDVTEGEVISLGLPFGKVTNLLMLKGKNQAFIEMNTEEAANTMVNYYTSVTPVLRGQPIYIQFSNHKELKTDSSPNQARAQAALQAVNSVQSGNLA
# Assay: Competitive fluorescence polarization assay, RRM1 and RNA-2
# Format: binding
# Conditions: Fig. 3C; competitive FP with RNA-2; read-out: P-6 Ki, construct RRM1
# Text: Different PTBP1 variants were used to investigate the mode of action of P-6via competitive FP experiments. As illustrated in Fig. 1A there is a short linker between RRM1 and the α3-helix which also makes contacts with the RNA. It is possible that when P-6 occupies the binding site of the helix, this linker is displaced disrupting its interactions with the RNA and lowering the RNA-binding affinity. To test this, we measured whether P-6 could inhibit RRM1 RNA-binding. […] Therefore, it seems most likely that P-6 inhibits RRM12 via disturbing the coordinated RNA-binding of the two RRM domains. As this is possibly regulated by the helix we tested if the peptide could inhibit RRM12–L151G where the role of the helix is reduced (Fig. 3C and S5 ^†). […] These findings further support a mode of action where P-6 disturbs coordinated RNA-binding by RRM1 and 2. […]
# size exclusion chromatography (Superdex 75 16/60 or 26/60) with SEC buffer (50 mM Tris, 200 mM NaCl). Protein homogeneity was assessed by the size exclusion chromatogram and purity was checked by SDS-PAGE analysis to be >= 90%.
# The gene encoding for SRSF1-RRM12 (1-195) was subcloned into pOPIN-His expression vector and expressed in E. coli BL21 (DE3). […]
# Fluorescence polarization assay with PTBP1 […]
structure (smiles),measurement,value
CC(=O)N[C@@H](CC(N)=O)C(=O)N[C@@H](CCC(N)=O)C(=O)N[C@@]1(C)CCCC=CCCCC2(CCCC=CCCC[C@](C)(C(=O)N[C@H](C(=O)N[C@@H](CC(N)=O)C(N)=O)C(C)C)NC(=O)[C@H](CCC(N)=O)NC(=O)[C@H](CC(C)C)NC(=O)[C@H](C)NC2=O)NC(=O)[C@H](CCC(N)=O)NC(=O)[C@H](C)NC(=O)[C@H](CCCNC(=N)N)NC1=O (stereo partly shown) [Peptide P-6],Ki,> 750 µM
